Legend:
[1] = biological target: T1, Muscarinic acetylcholine receptor M4 (Homo sapiens, UniProt P08173); test: (§1) Agonist activity at human Muscarinic acetylcholine receptor M4 expressed in HEK cells co-expressing Glosensor construct assessed as decrease in isoproterenol-induced cAMP accumulation incubated for 7 mins in presence of isoproterenol by Glosensor cAMP reagent/plate reader based luminescence assay; format: functional, cell-based
T1 sequence (P08173 whole entry): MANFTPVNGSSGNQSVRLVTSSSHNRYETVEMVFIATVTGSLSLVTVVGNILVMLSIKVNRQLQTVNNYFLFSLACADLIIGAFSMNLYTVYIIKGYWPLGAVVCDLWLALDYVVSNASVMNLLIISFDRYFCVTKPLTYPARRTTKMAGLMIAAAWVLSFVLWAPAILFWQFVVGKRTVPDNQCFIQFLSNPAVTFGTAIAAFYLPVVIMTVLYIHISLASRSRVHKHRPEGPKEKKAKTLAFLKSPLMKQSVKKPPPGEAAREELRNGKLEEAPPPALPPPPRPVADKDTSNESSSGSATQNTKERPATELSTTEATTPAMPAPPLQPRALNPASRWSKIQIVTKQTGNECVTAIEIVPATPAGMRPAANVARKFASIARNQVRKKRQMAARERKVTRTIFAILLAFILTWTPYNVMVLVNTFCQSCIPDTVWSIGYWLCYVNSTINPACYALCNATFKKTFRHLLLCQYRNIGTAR

[2] = biological target: T1, Muscarinic acetylcholine receptor M4; test: as §1, with “Positive allosteric modulatory” for “Agonist”, “as […]” for “decrease”, “acteylcholine-induced” for “isoproterenol-induced”, “isoproterenol/acetylcholine” for “isoproterenol”; format: functional, cell-based
[3] = biological target: T2, Muscarinic acetylcholine receptor M2 (Homo sapiens, UniProt P08172); test: (§2) Agonist activity at human Muscarinic acetylcholine receptor M2 expressed in HEK cells co-expressing Glosensor construct assessed as decrease in isoproterenol-induced cAMP accumulation incubated for 7 mins in presence of isoproterenol by Glosensor cAMP reagent/plate reader based luminescence assay; format: cell-based
T2 sequence (P08172 whole entry): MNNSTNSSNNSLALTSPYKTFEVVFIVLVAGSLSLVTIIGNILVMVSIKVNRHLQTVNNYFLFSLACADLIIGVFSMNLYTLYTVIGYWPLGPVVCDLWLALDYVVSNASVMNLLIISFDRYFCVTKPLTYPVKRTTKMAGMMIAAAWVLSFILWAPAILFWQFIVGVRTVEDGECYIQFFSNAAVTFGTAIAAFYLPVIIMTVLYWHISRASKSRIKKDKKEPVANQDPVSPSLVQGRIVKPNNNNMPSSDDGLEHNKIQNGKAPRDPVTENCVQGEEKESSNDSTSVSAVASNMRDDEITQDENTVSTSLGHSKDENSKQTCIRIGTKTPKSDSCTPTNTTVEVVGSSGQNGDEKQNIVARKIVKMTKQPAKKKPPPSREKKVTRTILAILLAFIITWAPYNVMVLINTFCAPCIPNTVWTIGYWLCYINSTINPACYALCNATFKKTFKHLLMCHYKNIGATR

[4] = biological target: T3, Muscarinic acetylcholine receptor M4 (Homo sapiens) (UniProt P08173); test: Agonist activity at human Muscarinic acetylcholine receptor M4 expressed in HEK cells co-expressing Glosensor construct assessed as decrease in isoproterenol-induced cAMP accumulation at 10 uM to 0.3 nM incubated for 2 hrs in presence of isoproterenol and measured after 7 mins by Glosensor cAMP reagent/plate reader based luminescence assay relative to acetylcholine; format: functional, cell-based
T3 sequence (whole entry): T1 sequence (P08173 whole entry)

[5] = biological target: T3, Muscarinic acetylcholine receptor M4 (Homo sapiens); test: Positive allosteric modulatory activity at human Muscarinic acetylcholine receptor M4 expressed in HEK cells co-expressing Glosensor construct assessed as as increase in acteylcholine-induced cAMP accumulation at 10 uM to 0.3 nM incubated for 7 mins in presence of isoproterenol/acetylcholine by Glosensor cAMP reagent/plate reader based luminescence assay relative to acetylcholine; format: functional, cell-based
[6] = biological target: T2, Muscarinic acetylcholine receptor M2; test: as §2, with “accumulation at 10 uM to 0.3 nM” for “accumulation”, “assay relative to acetylcholine” for “assay”; format: cell-based
[7] = test system: mouse BCRP; test: Efflux ratio of permeability across basolateral to apical over apical to basolateral in Doxycycline induced dog MDCK cells transfected with mouse BCRP; format: ADME, cell-based, Canis lupus familiaris
[8] = test system: MDR1; test: Efflux ratio of permeability across basolateral to apical over apical to basolateral in dog MDCK cells transfected with MDR1 gene; format: ADME, cell-based, Canis lupus familiaris

Structure (SMILES)	EC50 [1] [nM]	Emax [4] [%]	EC50 [2] [nM]	further results
COc1cccnc1C1CCN(C2CCCN(c3ncccn3)CC2)CC1 (stereo not drawn)			> 10000	
COc1cccnc1C1CCN(C2CCCN(c3ccncc3)CC2)CC1 (stereo not drawn)	> 10000		> 10000	
COc1cccnc1C1CCN(C2CCCN(c3nccs3)CC2)CC1 (stereo not drawn)	> 10000		> 10000	
COc1cccnc1C1CCN(C2CCCN(c3cccnc3)CC2)CC1 (stereo not drawn)			10000	Emax [5]: 80%
COc1cccnc1C1CCN(C2CCCN(c3nncs3)CC2)CC1 (stereo not drawn)	> 10000		> 10000	
O=C1CCCN1CC#CCN1CCCC1 [OXOTREMORINE]		94.4	9	Emax [5]: 90.7%
c1ccc(-n2ccnc2[C@@H]2[C@@H]3CN(C4CC5(CCN(c6cnccn6)C5)C4)C[C@@H]32)cc1 (stereo partly drawn)	7	83.8		EC50 ([3]; read-out: EC50): 420 nM; Emax at 7 min [6]: 79.4%
COc1cccnc1C1CCN(C2CCCN(c3cccnn3)CC2)CC1 (stereo not drawn)			> 10000	
COc1cccnc1C1CCN(C2CCCN(c3ccccn3)CC2)CC1 (stereo not drawn)			> 10000	
CCCCCCOc1nsnc1C1=CCCN(C)C1				Emax [5]: 100%
COc1cccnc1C1CCN(CC2CCN(c3cnccn3)CC2)CC1	296	78		efflux ratio [7]: 1.62; EC50 ([3]; read-out: EC50): > 8830 nM; efflux ratio [8]: 3.89; Emax at 7 min [6]: 102%
COc1cccnc1C1CCN(C2CCCN(c3cncnc3)CC2)CC1 (stereo not drawn)			> 10000	
CCOC(=O)N1CCC2(CC(N3C[C@@H]4[C@H](C3)[C@@H]4c3nccn3-c3ccccc3)C2)C1 (stereo partly drawn)	3	99		EC50 ([3]; read-out: EC50): 5160 nM; Emax at 7 min [6]: 100%
COc1cccnc1C1CCN(C2CC3(CCN(c4cnccn4)C3)C2)CC1 (stereo not drawn)	228	100		EC50 ([3]; read-out: EC50): > 7350 nM; Emax at 7 min [6]: 100%
CCOC(=O)N1CCC2(CC(N3CCC(c4ncccc4OC)CC3)C2)C1 (stereo not drawn)	9	90		EC50 ([3]; read-out: EC50): > 10000 nM
CCOC(=O)N1CCC(CN2CCC(c3ncccc3OC)CC2)CC1	23	82		EC50 [3]: Not Active

Now from value to compound, other results behind:

EC50 [1] [nM]	Emax [4] [%]	Structure (SMILES)	EC50 [2] [nM]	further results
> 10000		CCNS(=O)(=O)N1CCCC(N2CCC(c3ncccc3OC)CC2)CC1 (stereo not drawn)		
> 9930		COc1cccnc1C1CCN(C2CCCN(C(=O)OCC(C)C)CC2)CC1 (stereo not drawn)		
16	96.8	COc1cccnc1C1CCN(C2CCCN(c3cnccn3)CC2)CC1 (stereo not drawn)	25	EC50 ([3]; read-out: EC50): 250 nM; Emax [5]: 95.9%; Emax at 7 min [6]: 104%
> 4160	51	COc1cccnc1C1CCN(C2CCCN(c3cnc(C)cn3)CC2)CC1 (stereo not drawn)		
20	109	COc1cccnc1C1CCN(C2CCCN(c3cnsn3)CC2)CC1 (stereo not drawn)		
> 2740		COc1cccnc1C1CCN(C2CCCN(c3nc(C)cs3)CC2)CC1 (stereo not drawn)	> 10000	
11	99 to 99.1	CCOC(=O)N1CCCC(N2CCC(c3ncccc3OC)CC2)CC1 (stereo not drawn)		EC50 ([3]; read-out: EC50): 2520 nM; Emax at 7 min [6]: 83%
1100	101	COc1cccnc1C1CCN(C2CCCN(c3ncns3)CC2)CC1 (stereo not drawn)		
9830	100	COc1cccnc1C1CCN(C2CCCN(c3cncc(C)n3)CC2)CC1 (stereo not drawn)	> 10000	
3550	120	COc1cccnc1C1CCN(C2CCCN(c3nccnc3C)CC2)CC1 (stereo not drawn)	3410	
> 8880		CCCC(=O)N1CCCC(N2CCC(c3ncccc3OC)CC2)CC1 (stereo not drawn)		
470	107	COc1cccnc1C1CCN(C2CCCN(c3nsnc3C)CC2)CC1 (stereo not drawn)		
> 5990		CCNC(=O)N1CCCC(N2CCC(c3ncccc3OC)CC2)CC1 (stereo not drawn)		
> 9250		COc1cccnc1C1CCN(C2CCCN(C(=O)OC(C)C)CC2)CC1 (stereo not drawn)		
2510	94	COc1cccnc1C1CCN(C2CCCN(c3nsnc3OC)CC2)CC1 (stereo not drawn)		

Source: ChEMBL document CHEMBL4304767 (ACS Med Chem Lett, 2019)
